# According to ChEMBL document CHEMBL5528066, “Discovery of Novel N-(Anthracen-9-ylmethyl) Benzamide Derivatives as ZNF207 Inhibitors Promising in Treating Glioma” (J Med Chem, 2024):
# Active and inactive are the calls of the source. No cut-off for these calls is given here.
# Assays:
# U-251 [1] = experiment: Inhibition of sphere formation in human U-251MG cells at 4 uM measured after 10 days in well containing 10000 cells by microscopic analysis; assay type: functional, cell-based; settings: time 10.0 day
# LN-229 [2] = experiment: Inhibition of colony formation in human LN-229 cells assessed as reduction in colony area at 2.5 uM treated on day 1 and measured after 14 days by crystal violet staining based microscopic analysis relative to control; assay type: functional; settings: LN-229, 336 h, time 14 day
# Hs 683 [3] = experiment: Antiproliferative activity against human Hs 683 cells assessed as inhibition of cell growth measured after 72 hrs by CCK-8 assay; assay type: functional, cell-based; settings: Hs 683, 72 h
# [4] = Toxicity in female C57BL/6 mouse assessed as change in cellular structure of spleen at 45 mg/kg, po administered once a day for 2 weeks by H and E staining based analysis; assay type: organism-based; settings: in vivo, 336 h
# LN-229 [5] = experiment: Inhibition of sphere formation in human LN-229 cells at 2 uM measured after 10 days in well containing 10000 cells by microscopic analysis; assay type: functional, cell-based; settings: time 10.0 day
# Hs 683 [6] = experiment: Inhibition of sphere formation in human Hs 683 cells at 4 uM measured after 10 days in well containing 10000 cells by microscopic analysis; assay type: functional, cell-based; settings: time 10.0 day
# LN-229 [7] = experiment: Inhibition of cell migration in human LN-229 cells assessed as reduction in wound closure ability at 5 uM measured after 48 hrs by wound healing assay relative to control; assay type: functional
# [8] = Toxicity in male C57BL/6 mouse assessed as change in cellular structure of lung at 45 mg/kg, po administered once a day for 2 weeks by H and E staining based analysis; assay type: organism-based; settings: in vivo, 336 h
# LN-229 [9] = experiment: Inhibition of sphere formation in human LN-229 cells at 1 uM measured after 10 days in well containing 10000 cells by microscopic analysis; assay type: functional, cell-based; settings: time 10.0 day
# MDR1 [10] = experiment: Apparent permeability across basolateral to apical side in MDCKII-MDR1 cells assessed as drug recovery at 1 uM incubated for 2 hrs by LC-MS/MS analysis; assay type: ADME, cell-based, Canis lupus familiaris; settings: dog, MDCK-MDR1, read-out: Drug recovery
# [11] = Toxicity in female C57BL/6 mouse assessed as change in cellular structure of stomach at 45 mg/kg, po administered once a day for 2 weeks by H and E staining based analysis; assay type: organism-based; settings: in vivo, 336 h
# Hs 683 [12] = experiment: Inhibition of colony formation in human Hs 683 cells assessed as reduction in number of cell clones treated on day 1 and measured after 14 days by crystal violet staining based microscopic analysis; assay type: functional; settings: dose 0.625-5 µM, time 14.0 day
# H4 [13] = experiment: Inhibition of sphere formation in human H4 cells at 8 uM measured after 10 days in well containing 10000 cells by microscopic analysis; assay type: functional, cell-based; settings: time 10.0 day
# Hs 683 [14] = experiment: Inhibition of sphere formation in human Hs 683 cells at 8 uM measured after 10 days in well containing 100 cells by microscopic analysis; assay type: functional, cell-based; settings: time 10.0 day
# U-251 [15] = experiment: Inhibition of sphere formation in human U-251MG cells at 8 uM measured after 10 days in well containing 10000 cells by microscopic analysis; assay type: functional, cell-based; settings: time 10.0 day
# LN-229 [16] = experiment: Antitumor activity against human LN-229 cells xenografted in BALB/c nude mouse assessed as reduction in proportion of Ki-67 positive cells at 15 to 45 mg/kg, po administered once a day and measured after 49 days by immunohistochemistry analysis; assay type: functional, organism-based; settings: dose 15-45 mg/kg, time 49.0 day
# [17] = Toxicity in female C57BL/6 mouse assessed as change in cellular structure of liver at 45 mg/kg, po administered once a day for 2 weeks by H and E staining based analysis; assay type: organism-based; settings: in vivo, 336 h
# U-251 [18] = experiment: Inhibition of sphere formation in human U-251MG cells at 1 uM measured after 10 days in well containing 1 cells by microscopic analysis; assay type: functional, cell-based; settings: time 10.0 day
# H4 [19] = experiment: Inhibition of sphere formation in human H4 cells assessed as fold reduction in sphere initiating frequency at 1 uM incubated for 10 days by microscopic analysis relative to control; assay type: functional; settings: time 10 day
# LN-229 [20] = experiment: Inhibition of sphere formation in human LN-229 cells at 1 uM measured after 10 days in well containing 1000 cells by microscopic analysis; assay type: functional, cell-based; settings: time 10.0 day
# Hs 683 [21] = experiment: Inhibition of sphere formation in human Hs 683 cells assessed as fold reduction in sphere initiating frequency at 2 uM incubated for 10 days by microscopic analysis relative to control; assay type: functional; settings: time 10 day
# LN-229-Luc [22] = experiment: Antitumor activity against human Ln-229-Luc cells xenografted in BALB/c nude mouse assessed as reduction in tumor load at 45 mg/kg, po administered once a day and measured on day 25 by bioluminescence imaging analysis relative to control; assay type: functional; settings: time 25 day
# HeLa = experiment: Antiproliferative activity against human HeLa cells assessed as inhibition of cell growth incubated for 72 hrs by CCK-8 assay; assay type: functional, cell-based
# MDR1 [23] = experiment: Apparent permeability across apical to basolateral side in MDCKII-MDR1 cells assessed as drug recovery at 1 uM incubated for 2 hrs by LC-MS/MS analysis; assay type: ADME, cell-based, Canis lupus familiaris; settings: dog, MDCK-MDR1, read-out: Drug recovery
# H4 [24] = experiment: Inhibition of colony formation in human H4 cells assessed as reduction in number of cell clones treated on day 1 and measured after 14 days by crystal violet staining based microscopic analysis; assay type: functional; settings: dose 0.625-5 µM, time 14.0 day
# H4 [25] = experiment: Inhibition of sphere formation in human H4 cells assessed as fold reduction in sphere initiating frequency at 8 uM incubated for 10 days by microscopic analysis relative to control; assay type: functional; settings: time 10 day
# H4 [26] = experiment: Inhibition of sphere formation in human H4 cells at 2 uM measured after 10 days in well containing 100 cells by microscopic analysis; assay type: functional, cell-based; settings: time 10.0 day
# [27] = target: BUB3-interacting and GLEBS motif-containing protein ZNF207 (Homo sapiens, UniProt O43670); experiment: Binding affinity to human ZNF207 assessed as dissociation constant by SPR analysis
# U-251 [28] = experiment: Inhibition of sphere formation in human U-251MG cells at 2 uM measured after 10 days in well containing 10000 cells by microscopic analysis; assay type: functional, cell-based; settings: time 10.0 day
# H4 [29] = experiment: Inhibition of colony formation in human H4 cells assessed as reduction in colony area at 5 uM treated on day 1 and measured after 14 days by crystal violet staining based microscopic analysis relative to control; assay type: functional; settings: H4, 336 h, time 14 day
# [30] = Drug concentration in male Sprague-Dawley rat liver at 45 mg/kg, po measured after 8 hrs by LC-MS/MS analysis; assay type: ADME, organism-based; settings: read-out: Ct
# LN-229 [31] = experiment: Antitumor activity against human LN-229 cells xenografted in BALB/c nude mouse assessed as tumor growth delay by measuring tumor volume at 15 mg/kg, po administered once a day and measured every 2 days for 49 days (reference value: 700 […]); assay type: functional; settings: time 49 day
# LN-229-Luc [32] = experiment: Antitumor activity against human Ln-229-Luc cells xenografted in BALB/c nude mouse assessed as increase in overall survival time at 45 mg/kg, po administered once a day and measured after 3 to 31 days; assay type: functional, organism-based; settings: time 3-31 day
# [33] = Drug concentration in female Sprague-Dawley rat intestine at 45 mg/kg, po measured after 8 hrs by LC-MS/MS analysis; assay type: ADME, organism-based; settings: read-out: Ct
# [34] = Drug concentration in female Sprague-Dawley rat spleen at 45 mg/kg, po measured after 8 hrs by LC-MS/MS analysis; assay type: ADME, organism-based; settings: read-out: Ct
# [35] = Toxicity in female C57BL/6 mouse assessed as change in cellular structure of brain at 45 mg/kg, po administered once a day for 2 weeks by H and E staining based analysis; assay type: organism-based; settings: in vivo, 336 h
# Sequence of BUB3-interacting and GLEBS motif-containing protein ZNF207 (O43670 whole entry): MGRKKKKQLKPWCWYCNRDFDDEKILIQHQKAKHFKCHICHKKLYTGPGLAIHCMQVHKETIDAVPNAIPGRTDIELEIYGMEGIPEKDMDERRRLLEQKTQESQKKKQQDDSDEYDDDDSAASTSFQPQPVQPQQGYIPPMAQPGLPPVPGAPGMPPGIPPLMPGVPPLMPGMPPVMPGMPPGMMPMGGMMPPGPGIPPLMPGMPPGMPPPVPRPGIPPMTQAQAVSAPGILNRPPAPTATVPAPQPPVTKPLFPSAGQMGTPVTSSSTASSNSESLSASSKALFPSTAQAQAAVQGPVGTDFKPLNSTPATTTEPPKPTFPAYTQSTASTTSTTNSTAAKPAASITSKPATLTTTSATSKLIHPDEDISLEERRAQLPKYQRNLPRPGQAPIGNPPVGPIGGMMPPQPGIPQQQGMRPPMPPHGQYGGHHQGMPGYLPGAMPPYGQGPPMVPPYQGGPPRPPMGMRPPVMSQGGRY
smiles,measurement,setting,value
N#CC1(C(=O)NCCC2CCN(Cc3ccccc3)CC2)CC2(Br)c3ccccc3C1c1ccccc12 (racemic),inhibition,U-251 [1],inactive
same,inhibition at 2.5 µM,LN-229 [2],100%
same,IC50,Hs 683 [3],8.53 µM
same,Activity,[4],Non-Toxic
same,inhibition,LN-229 [5],inactive
same,inhibition,Hs 683 [6],inactive
same,inhibition at 5 µM,LN-229 [7],28.4%
same,Activity,[8],Non-Toxic
same,inhibition,LN-229 [9],inactive
same,"recovery at 2 h, 1 µM",MDR1 [10],101%
same,Activity,[11],Non-Toxic
same,inhibition,Hs 683 [12],Dose-Dependent Effect
same,inhibition,H4 [13],inactive
same,inhibition,Hs 683 [14],Active
same,inhibition,U-251 [15],inactive
same,Activity,LN-229 [16],Active
same,Activity,[17],Non-Toxic
same,inhibition,U-251 [18],Active
same,fold change (FC),H4 [19],14.09
same,inhibition,LN-229 [20],inactive
same,fold change (FC),Hs 683 [21],15.75
same,fold change (FC),LN-229-Luc [22],7.6
same,IC50,HeLa,8.13 µM
same,"recovery at 2 h, 1 µM",MDR1 [23],96%
same,inhibition,H4 [24],Dose-Dependent Effect
same,fold change (FC),H4 [25],51.75
same,inhibition,H4 [26],Active
same,Kd,[27],0.067 µM
same,inhibition,U-251 [28],inactive
same,inhibition at 5 µM,H4 [29],100%
same,concentration at 8 h,[30],779 ng/g
same,Activity,LN-229 [31],280 mm3
same,Activity,LN-229-Luc [32],Active
same,concentration at 8 h,[33],442 ng/g
same,concentration at 8 h,[34],2330 ng/g
same,Activity,[35],Non-Toxic
